The values that follow come from US8604019B2, “Compounds for the treatment and prophylaxis of respiratory syncytial virus disease” (Hoffman-La Roche Inc., priority 2011, dated 2013).

The first assay relates to established RSV infection.
Test: not given
The conditions noted are these: in vivo; cited from earlier work.
On to “palivizumab: a humanized monoclonal antibody against RSV fusion (F) protein approved for prophylaxis in high-risk infants”, for which the “efficacy in treatment of established RSV infection” value was “not effective”.

The test system of a further assay is RSV.
Test: not given
The conditions noted are these: Phase III clinical trials; cited from earlier work.
As for “motavizumab: A newer version monoclonal antibody designed as potential replacement of palivizumab”, the benefit over palivizumab entry was “failed to show additional benefit over palivizumab”.

Another assay relates to RSV Long strain (ATCC, catalog number: VR-26). Nature of the assay: Viral cytopathic effect (CPE) assay, anti-RSV activity. The assay is classed as cell-based. Particulars: human respiratory syncytial virus, 144 h, 6 days, cell viability by Cell Counting kit-8. The procedure:
Viral cytopathic effect (CPE) assay: To measure anti-RSV activity of compounds, 96-well plates are seeded with 6×10^3 cells per well in Dulbecco's modified Eagle's medium (DMEM) containing 10% fetal bovine serum (FBS). Cells are infected the next day with sufficient RSV Long strain (ATCC, catalog number: VR-26) to produce an approximately 80-90% cytopathic effect after 6 days, in the presence of serial half-log diluted compound in a total volume of 200 μL per well. The viability of cells is assessed after 6 days using Cell Counting kit-8 (Dojindo Molecular Technologies). The absorbance at 450 nm and referenced at 630 nm is measured to determine 50% effective concentration (EC50).
For orientation: Damage to the host cells serves as the signal in cytopathic effect assays.
Regarding `NCCCNc1nc(N2CCCc3ccccc3C2)nc2ccsc12` [Example 1-9, N-[2-(1,3,4,5-Tetrahydro-2H-2-benzazepin-2-yl)thieno[3,2-d]pyrimidin-4-yl]propane-1,3-diamine], the EC50 came out at 0.667 µM.

As to `NCCCNc1nc(N2CCSc3ccccc3C2)nc2ccsc12` [Example 1-5, N-[2-(2,3-Dihydro-1,4-benzothiazepin-4(5H)-yl)thieno[3,2-d]pyrimidin-4-yl]propane-1,3-diamine], the EC50 was determined as 0.384 µM.

With `NC1(CNc2nc(N3CCS(=O)(=O)c4ccccc4C3)nc3ccsc23)COC1` [Example 2-1, N-[(3-Aminooxetan-3-yl)methyl]-2-(1,1-dioxido-2,3-dihydro-1,4-benzothiazepin-4(5H)-yl)thieno[3,2-d]pyrimidin-4-amine], the 50% effective concentration (EC50) stood at 0.007 µM.

For `Cc1cc2nc(N3CCNc4ccccc4C3)nc(NCCCN)c2s1` [Example 1-3, N-[6-Methyl-2-(1,2,3,5-tetrahydro-4H-1,4-benzodiazepin-4-yl)thieno[3,2-d]pyrimidin-4-yl]propane-1,3-diamine], it took 3.12 µM to reach a half-maximal effect (EC50).

`Cc1cc2nc(N3CC[S+]([O-])c4ccccc4C3)nc(NCCN)c2s1` (centres unmarked) [Example 3-3, N-[6-Methyl-2-(1-oxido-2,3-dihydro-1,4-benzothiazepin-4(5H)-yl)thieno[3,2-d]pyrimidin-4-yl]ethane-1,2-diamine] came in with an EC50 of 0.086 µM.

In turn, `NCC(F)(F)CNc1nc(N2CCS(=O)(=O)c3ccccc3C2)nc2ccsc12` [Example 1-1, N-[2-(1,1-Dioxido-2,3-dihydro-1,4-benzothiazepin-4(5H)-yl)thieno[3,2-d]pyrimidin-4-yl]-2,2-difluoropropane-1,3-diamine] showed an EC50 of 0.215 µM.

For the compound `NCCCNc1nc(N2CCS(=O)(=O)c3ccccc3C2)nc2ccsc12` [Example 1-15, N-[2-(1,1-Dioxido-2,3-dihydro-1,4-benzothiazepin-4(5H)-yl)thieno[3,2-d]pyrimidin-4-yl]propane-1,3-diamine], the half-maximal effective concentration (EC50) was 0.076 µM.

As for `Cc1cc2nc(N3CC[S+]([O-])c4ccccc4C3)nc(NC3CNC[C@H]3F)c2s1` (mixture of isomers) [Example 4-1, N—[trans-(±)-4-Fluoropyrrolidin-3-yl]-6-methyl-2-(1-oxido-2,3-dihydro-1,4-benzothiazepin-4(5H)-yl)thieno[3,2-d]pyrimidin-4-amine], the EC50 is 0.03 µM.

`Cc1cc2nc(N3CCOc4ccccc4C3)nc(NCCCN)c2s1` [Example 1-11, N-[2-(2,3-Dihydro-1,4-benzoxazepin-4(5H)-yl)-6-methylthieno[3,2-d]pyrimidin-4-yl]propane-1,3-diamine] registered an EC50 of 1.35 µM.

For `Cc1cc2nc(N3CC[S+]([O-])c4ccccc4C3)nc(NCC3(CN)COC3)c2s1` (centres unmarked) [Example 3-4, N-{[3-(Aminomethyl)oxetan-3-yl]methyl}-6-methyl-2-(1-oxido-2,3-dihydro-1,4-benzothiazepin-4(5H)-yl)thieno[3,2-d]pyrimidin-4-amine], a half-maximal response (EC50) required 0.006 µM.

Compound `NC1(CNc2nc(N3CC[S@+]([O-])c4ccccc4C3)nc3ccsc23)COC1` [Example 2-4, N-[(3-aminooxetan-3-yl)methyl]-2-[(1S)-1-oxido-2,3-dihydro-1,4-benzothiazepin-4(5H)-yl]thieno[3,2-d]pyrimidin-4-amine] yielded an EC50 of 0.003 µM.

Turning to `Cc1cc2nc(N3CCS(=O)(=O)c4ccccc4C3)nc(NCCCN)c2s1` [Example 1-14, N-[2-(1,1-Dioxido-2,3-dihydro-1,4-benzothiazepin-4(5H)-yl)-6-methylthieno[3,2-d]pyrimidin-4-yl]propane-1,3-diamine], the EC50 came out at 0.073 µM.

As for `Cc1cc2nc(N3CC[S+]([O-])c4ccccc4C3)nc(NCCCN)c2s1` (centres unmarked) [Example 3-5, N-[6-Methyl-2-(1-oxido-2,3-dihydro-1,4-benzothiazepin-4(5H)-yl)thieno[3,2-d]pyrimidin-4-yl]propane-1,3-diamine], the EC50 is 0.232 µM.

`Cc1cc2nc(N3CC[S+]([O-])c4ccccc4C3)nc(NCC(F)CN)c2s1` (centres unmarked) [Example 3-2, 2-Fluoro-N-[6-methyl-2-(1-oxido-2,3-dihydro-1,4-benzothiazepin-4(5H)-yl)thieno[3,2-d]pyrimidin-4-yl]propane-1,3-diamine] returned an EC50 of 0.468 µM.

As to `Cc1cc2nc(N3CC[S+]([O-])c4ccccc4C3)nc(NCC3(N)COC3)c2s1` (centres unmarked) [Example 3-1, N-[(3-Aminooxetan-3-yl)methyl]-6-methyl-2-(1-oxido-2,3-dihydro-1,4-benzothiazepin-4(5H)-yl)thieno[3,2-d]pyrimidin-4-amine], the midpoint of the response, the EC50, lay at 0.026 µM.

Compound `Cc1cc2nc(N3CCSc4ccccc4C3)nc(NCCCN)c2s1` [Example 1-10, N-[2-(2,3-Dihydro-1,4-benzothiazepin-4(5H)-yl)-6-methylthieno[3,2-d]pyrimidin-4-yl]propane-1,3-diamine] displayed an EC50 of 0.735 µM.

With `Cc1cc2nc(N3CC[S+]([O-])c4ccccc4C3)nc(NC3CCNC3)c2s1` (centres unmarked) [Example 4-2, 6-Methyl-2-(1-oxido-2,3-dihydro-1,4-benzothiazepin-4(5H)-yl)-N-(pyrrolidin-3-yl)thieno[3,2-d]pyrimidin-4-amine], the EC50 was determined as 0.676 µM.

Consider `NCC1(Nc2nc(N3CCS(=O)(=O)c4ccccc4C3)nc3ccsc23)COC1` [Example 2-2, N-[3-(aminomethyl)oxetan-3-yl]-2-(1,1-dioxido-2,3-dihydro-1,4-benzothiazepin-4(5H)-yl)thieno[3,2-d]pyrimidin-4-amine], for which the EC50 was 0.897 µM.

Regarding `Cc1cc2nc(N3CCC(F)(F)c4ccccc4C3)nc(NCCCN)c2s1` [Example 1-12, N-[2-(5,5-Difluoro-1,3,4,5-tetrahydro-2H-2-benzazepin-2-yl)-6-methylthieno[3,2-d]pyrimidin-4-yl]propane-1,3-diamine], the concentration for a half-maximal effect (EC50) came to 1.01 µM.

As for `Cc1cc2nc(N3CCCc4ccccc4C3)nc(NCCCN)c2s1` [Example 1-13, N-[6-Methyl-2-(1,3,4,5-tetrahydro-2H-2-benzazepin-2-yl)thieno[3,2-d]pyrimidin-4-yl]propane-1,3-diamine], the concentration giving a half-maximal response (EC50) was 1.44 µM.

Take `NCCCNc1nc(N2CCC(F)(F)c3ccccc3C2)nc2ccsc12` [Example 1-7, N-[2-(5,5-Difluoro-1,3,4,5-tetrahydro-2H-2-benzazepin-2-yl)thieno[3,2-d]pyrimidin-4-yl]propane-1,3-diamine]: it took 0.669 µM to reach a half-maximal effect (EC50).

On to `NCCCNc1nc(N2CCNc3ccccc3C2)nc2ccsc12` [Example 1-4, N-[2-(1,2,3,5-Tetrahydro-4H-1,4-benzodiazepin-4-yl)thieno[3,2-d]pyrimidin-4-yl]propane-1,3-diamine], for which the EC50 came to 9.47 µM.

With `NC1(CNc2nc(N3CC[S@@+]([O-])c4ccccc4C3)nc3ccsc23)COC1` [Example 2-3, N-[(3-Aminooxetan-3-yl)methyl]-2-[(1R)-1-oxido-2,3-dihydro-1,4-benzothiazepin-4(5H)-yl]thieno[3,2-d]pyrimidin-4-amine], a half-maximal effect (EC50) was put at 0.068 µM.

`NCC1(CNc2nc(N3CCC(F)(F)c4ccccc4C3)nc3ccsc23)COC1` [Example 1-8, N-{[3-(Aminomethyl)oxetan-3-yl]methyl}-2-(5,5-difluoro-1,3,4,5-tetrahydro-2H-2-benzazepin-2-yl)thieno[3,2-d]pyrimidin-4-amine] displayed an EC50 of 0.022 µM.

On to `NCCCNc1nc(N2CC[S+]([O-])c3ccccc3C2)nc2ccsc12` (centres unmarked) [Example 1-2, N-[2-(1-Oxido-2,3-dihydro-1,4-benzothiazepin-4(5H)-yl)thieno[3,2-d]pyrimidin-4-yl]propane-1,3-diamine], for which a half-maximal response (EC50) required 0.255 µM.

`NCCCNc1nc(N2CCOc3ccccc3C2)nc2ccsc12` [Example 1-6, N-[2-(2,3-Dihydro-1,4-benzoxazepin-4(5H)-yl)thieno[3,2-d]pyrimidin-4-yl]propane-1,3-diamine] yielded an EC50 of 2.21 µM.

A further assay relates to RSV infection.
Test: not given
The conditions noted are these: intramuscularly at 15 mg/kg once a month for the duration of RSV season, selected infants; cited from earlier work.
Consider “palivizumab: a humanized monoclonal antibody against RSV fusion (F) protein approved for prophylaxis in high-risk infants”, for which the “reduction of hospitalization rate caused by RSV infection” value is reported as 45-55%.

One may read the EC50 as the concentration needed to bring the measured effect to its halfway point. Read a high EC50 as lower potency in that assay.
